Data published in patent US8906904B2, “Alkoxy pyrazoles as soluble guanylate cyclase activators” (Boehringer Ingelheim International GmbH, priority 2012, dated 2014).
≈ marks a conversion by molar mass, not a printed value.

test system: not listed separately; experiment: Assessment of solubility (McIlvaine buffers, 24 h shake, UPLC-UV); type: physicochemical; settings: pH 2.2, aqueous buffer, kinetic from dmso stock
Description: Solubility is measured by the following method.
100 uL, 10 mM DMSO stock solution of each compound is prepared in a 96 well plate format. The experiment is done in single determination at 3 pH values (2.2, 4.5 and 6.8). For each pH and one reference, 40 uL of each compound is needed.
McIlvaine pH 2.2: To 2.076 g citric acid monohydrate and 0.043 g Na2HPO4×2H2O add 100 ml deionized water
McIlvaine pH 4.5: To 1.166 g citric acid monohydrate and 1.585 g Na2HPO4×2H2O add 100 ml deionized water
McIlvaine pH 6.8: To 0.476 g citric acid monohydrate and 2.753 g Na2HPO4×2H2O add 100 ml deionized water
With a suitable liquid handling device (Multipette® or a liquid handler) 390 uL of each buffer solution and 10 uL of compound is added to each well of a 96 deep well plate. The plates are covered firmly and shaken for 24 h on an over head shaker (at 54 RPM) at room temperature. The DMSO content in the final buffer is 2.5% v/v.
After 24 h the plates are centrifuged to remove droplets on the lid before opening (for ˜5 min at 2500 RPM).
The filtration is done under vacuum with Millipore 96 well filter plate. Filtrate is collected in a deep well plate and transferred to a suitable plate for UPLC analysis.
The reference plate is prepared by adding 10 uL of compound to 390 uL of 50:50 acetonitrile/water in a 96 deep well plate and transferred to a suitable plate for UPLC analysis. Wells are checked visually for precipitation, any presence noted under comments in reported results.
The samples are measured with UPLC-UV using the chromatographic method described below.
Waters Empower®2 software is used for generating Sample Sets (according to the plate layout), Sample Set Methods and Instrument Methods.
One Sample Set comprises the methods for three 96 well plates (one reference plate and two sample plates, and includes one Sample Set Method and one Instrument Method).
3. Data Processing and Analysis
The UV chromatograms collected at 254 nm are integrated and processed.
It is assumed that the compound is completely dissolved in the reference solution (50:50 acetonitrile/water)

Row | Structure (SMILES) | solubility at 24 h [µg/mL]
1 | CCOc1c(C(=O)O)cnn1-c1cccc(-c2cccc(C)c2OCc2ccc3c(c2)CCNC3)n1 [Compound 60] | 117 (≈ 241 µM)

same assay, conditions: pH 4.5, aqueous buffer, kinetic from dmso stock

Row | Structure (SMILES) | solubility at 24 h [µg/mL]
2 | CCOc1c(C(=O)O)cnn1-c1cccc(-c2cccc(C)c2OCc2ccc3c(c2)CCNC3)n1 [Compound 60] | 96 (≈ 198 µM)

same assay, conditions: pH 6.8, aqueous buffer, kinetic from dmso stock

Row | Structure (SMILES) | solubility at 24 h [µg/mL]
3 | CCOc1c(C(=O)O)cnn1-c1cccc(-c2cccc(C)c2OCc2ccc3c(c2)CCNC3)n1 [Compound 60] | 100 (≈ 206 µM)

test system: not listed separately; experiment: human liver microsome (HLM) metabolic stability assay; type: in vitro ADME; settings: human liver microsomes; % hepatic blood flow calculated from t1/2
Description: The 5 time point, high-throughput human liver microsome (HLM) metabolic stability assay is designed to determine in vitro compound metabolism. Compounds are incubated with HLMs at a concentration of 1 uM, at 37° C., for a total of 60 min. The percent of compound remaining at 5, 15, 30, and 60 min is used to calculate the t½ (min), CLint (mL/min/kg), CLh (mL/min/kg), and % Qh. The assay is based on a 96-well format and can accommodate up to 92 compounds per plate (n=1).
Using the 96-well multi-channel head, the Biomek FX, equipped with a Peltier heating block/shaker, is programmed to accomplish the following steps: • 1. Pipette 175 uL of 1.15 mg/mL microsomes into each of the 96 conical inserts (Analytical Sales and Products, catalog number 96PL05) that fit into the plate of the Peltier heating block/shaker (the incubation plate) • 2. Add 5 uL of compounds from the assay plate to the microsomes and shake the mixture at 600 rpm at 42.1° C. for 10 min (a setting of 42.1° C. on the Peltier is required for the samples to incubate at 37° C.) • 3. After 10 min, prompt the user to add the NADPH plate to the deck and add 20 uL from the NADPH plate to the incubation plate to start the reaction • 4. Add 215 uL of 100%, cold acetonitrile containing an internal standard(s) to a 0 minute, 5 minute, 15 minute, 30 minute, and 60 minute “quench” plate • 5. At 0 min, 5 min, 15 min, 30 min, and 60 min into the incubation, aspirate 12 uL from the incubation mixture and add it to the quench solution to stop the reaction • 6. Add 185 uL HPLC grade water to each well of the 0, 5, 15, 30 and 60 minute quench plates to dilute compounds to the appropriate concentration for the mass spectrometer
After all time points are collected, the quench plates are sealed with 96-well pierceable plate mats or heat sealing foil and centrifuged at 3000 rpm for 15 min to pellet the microsomes.
The plates are analyzed using LC/MS/MS with electron spray ionization (ESI) and the previously determined MRM transitions. The LC method includes the following parameters:
Using an Excel template in Activitybase, the peak areas corresponding to 5, 15, 30 and 60 min are compared to the peak area at 0 min to calculate the percent of remaining compound using the following equation: Percent compound remaining=(AUC at Time t min/AUC at Time 0 min)×100 where t=0, 5, 15, 30 or 60 min.
Time (min) is plotted against the natural logarithm (Ln) of the percent compound remaining to determine the slope. The slope is used to calculate t½ (min) using the equation, t½=0.693/slope.
Preferred compounds have % Qh values of less than 24.

Row | Structure (SMILES) | HLM (% Qh)
4 | COc1c(C(=O)O)cnn1-c1cccc(-c2cccc(C)c2OCc2ccc3c(c2)CN(C2CCOCC2)C3)n1 [Compound 59] | <24
5 | CCOc1c(C(=O)O)cnn1-c1cccc(-c2cccc(C)c2OCc2ccc3c(c2)CCNC3)n1 [Compound 60] | <24
6 | Cc1cccc(-c2cccc(-n3ncc(C(=O)O)c3OC(C)C)n2)c1OCc1ccc2c(c1C)CCN([C@@H]1CCCOC1)C2 [Compound 116] | <24
7 | COc1c(C(=O)O)cnn1-c1cccc(-c2cccc(C)c2OCc2cc(C)c3c(c2C)CN(S(=O)(=O)c2ccc(C)cc2)C3)n1 [Compound 138] | 68
8 | CCOc1c(C(=O)O)cnn1-c1cccc(-c2cccc(C)c2OCc2ccc3c(c2C)CCN(C(CO)CO)C3)n1 [Compound 156] | <24
9 | COc1c(C(=O)O)cnn1-c1cccc(-c2cccc(C)c2OCc2ccc3c(c2)CCN(C[C@H]2CCOC2)C3)n1 [Compound 192] | <24
10 | CCOc1c(C(=O)O)cnn1-c1cccc(-c2cccc(C)c2OCc2ccc3c(c2)CN(C2CCOCC2)C3)n1 [Compound 216] | <24
11 | COc1c(C(=O)O)cnn1-c1cccc(-c2cccc(C)c2OCc2cc(C)c3c(c2C)CN(CC2COCCO2)C3)n1 (centres unmarked) [Compound 246] | <24
12 | COc1c(C(=O)O)cnn1-c1cccc(-c2cccc(C)c2OCc2cc(C)c3c(c2)CN(C2CCOCC2)C3)n1 [Compound 255] | <24
13 | COc1c(C(=O)O)cnn1-c1cccc(-c2cccc(C)c2OCc2ccc3c(c2C)CN(C2CCOCC2)C3)n1 [Compound 256] | <24
14 | COc1c(C(=O)O)cnn1-c1cccc(-c2cccc(C)c2OCc2ccc3c(c2C)CN(C2COC2)C3)n1 [Compound 257] | <24
15 | COc1c(C(=O)O)cnn1-c1cccc(-c2cccc(C)c2OCc2cc(C)c3c(c2)CN(C2COC2)C3)n1 [Compound 258] | <24

target: T1, human soluble guanylate cyclase alpha 1 and beta 1 subunits (sGC) (Homo sapiens, UniProt Q02108+Q02153); experiment: sGC cellular activator assay (cGMP, HTRF); type: cell-based; settings: CHO cells stably expressing human sGC alpha 1/beta 1, preincubated with 40 microM ODQ; cGMP readout; assay run with and without 50% human serum, Table 2 does not say which
T1 construct: expressed in transfected cells; host or cells: Chinese hamster ovary (CHO) cells, stably transfected
T1 sequence (Q02108 1-690): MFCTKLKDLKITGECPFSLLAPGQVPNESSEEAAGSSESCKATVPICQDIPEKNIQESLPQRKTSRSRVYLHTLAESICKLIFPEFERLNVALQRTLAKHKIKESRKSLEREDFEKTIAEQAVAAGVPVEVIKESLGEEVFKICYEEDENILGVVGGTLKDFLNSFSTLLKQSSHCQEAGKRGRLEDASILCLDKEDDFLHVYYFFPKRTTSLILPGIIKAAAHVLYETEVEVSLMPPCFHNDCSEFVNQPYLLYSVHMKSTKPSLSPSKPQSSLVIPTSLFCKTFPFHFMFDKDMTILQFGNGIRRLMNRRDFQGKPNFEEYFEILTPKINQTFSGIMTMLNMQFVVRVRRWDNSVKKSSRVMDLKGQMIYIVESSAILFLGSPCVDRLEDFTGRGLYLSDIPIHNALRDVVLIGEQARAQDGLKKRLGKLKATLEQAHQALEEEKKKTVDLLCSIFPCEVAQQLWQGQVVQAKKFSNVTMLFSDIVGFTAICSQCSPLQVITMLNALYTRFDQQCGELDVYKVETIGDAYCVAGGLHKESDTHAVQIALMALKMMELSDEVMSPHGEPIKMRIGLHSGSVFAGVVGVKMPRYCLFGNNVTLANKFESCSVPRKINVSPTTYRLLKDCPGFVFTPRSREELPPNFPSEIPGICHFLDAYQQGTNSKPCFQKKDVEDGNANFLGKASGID
T1 sequence (Q02153 1-619): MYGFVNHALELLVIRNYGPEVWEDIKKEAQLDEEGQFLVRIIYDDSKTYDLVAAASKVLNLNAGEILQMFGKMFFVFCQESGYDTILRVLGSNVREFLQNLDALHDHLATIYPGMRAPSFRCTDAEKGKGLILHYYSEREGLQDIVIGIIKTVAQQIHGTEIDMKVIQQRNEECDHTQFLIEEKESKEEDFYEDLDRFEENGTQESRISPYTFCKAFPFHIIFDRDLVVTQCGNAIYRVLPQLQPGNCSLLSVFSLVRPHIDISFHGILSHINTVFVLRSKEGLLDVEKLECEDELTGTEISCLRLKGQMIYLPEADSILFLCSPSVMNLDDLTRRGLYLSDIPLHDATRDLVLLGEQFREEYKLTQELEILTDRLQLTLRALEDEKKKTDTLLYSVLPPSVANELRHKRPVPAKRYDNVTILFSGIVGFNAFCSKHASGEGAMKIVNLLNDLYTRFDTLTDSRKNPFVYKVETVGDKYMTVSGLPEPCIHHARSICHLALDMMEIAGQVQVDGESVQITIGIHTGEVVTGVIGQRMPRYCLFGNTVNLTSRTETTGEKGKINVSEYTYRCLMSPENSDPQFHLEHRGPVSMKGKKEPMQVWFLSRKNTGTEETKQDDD
Description: The sGC cellular activator assay is performed in the presence and absence of 50% human serum (HS) using Chinese hamster ovary cells that have been stably transfected to express the human soluble guanylate cyclase alpha 1 and beta 1 subunits (sGC). Cells are preincubated with 40 microM 1H-[1,2,4]oxadiazolo[4,3-a]quinoxalin-1-one (ODQ), an sGC inhibitor, for one h in buffer containing 0.1% bovine serum albumin and 3-isobutyl-1-methylxanthine (IBMX). Concentration response curves are prepared for test compounds in DMSO. An intermediate dilution of the compounds is performed in either buffer containing IBMX or type AB HS containing IBMX. Diluted compounds are added to cells and they are incubated at room temperature for thirty min. cGMP is measured using a CisBio homogeneous time resolved fluorescence kit and the EC50 is calculated for each compound.
Representative compounds of the present invention were tested for activity the above assay. Preferred compounds have an EC50 of <1,000 nM in the above assay and more preferred compounds have an EC50<200 nM.

Row | Structure (SMILES) | EC50 [nM]
16 | COc1c(C(=O)O)cnn1-c1cccc(-c2cccc(C)c2OCc2ccc3c(c2)CN(C2CCOCC2)C3)n1 [Compound 59] | 31
17 | Cc1cccc(-c2cccc(-n3ncc(C(=O)O)c3OC(C)C)n2)c1OCc1ccc2c(c1C)CCN([C@@H]1CCCOC1)C2 [Compound 116] | 28
18 | COc1c(C(=O)O)cnn1-c1cccc(-c2cccc(C)c2OCc2cc(C)c3c(c2C)CN(S(=O)(=O)c2ccc(C)cc2)C3)n1 [Compound 138] | 54
19 | CCOc1c(C(=O)O)cnn1-c1cccc(-c2cccc(C)c2OCc2ccc3c(c2C)CCN(C(CO)CO)C3)n1 [Compound 156] | 720
20 | COc1c(C(=O)O)cnn1-c1cccc(-c2cccc(C)c2OCc2ccc3c(c2)CCN(C[C@H]2CCOC2)C3)n1 [Compound 192] | 10
21 | CCOc1c(C(=O)O)cnn1-c1cccc(-c2cccc(C)c2OCc2ccc3c(c2)CN(C2CCOCC2)C3)n1 [Compound 216] | 110
22 | COc1c(C(=O)O)cnn1-c1cccc(-c2cccc(C)c2OCc2cc(C)c3c(c2C)CN(CC2COCCO2)C3)n1 (centres unmarked) [Compound 246] | 6.5
23 | COc1c(C(=O)O)cnn1-c1cccc(-c2cccc(C)c2OCc2cc(C)c3c(c2)CN(C2CCOCC2)C3)n1 [Compound 255] | 9.5
24 | COc1c(C(=O)O)cnn1-c1cccc(-c2cccc(C)c2OCc2ccc3c(c2C)CN(C2CCOCC2)C3)n1 [Compound 256] | 14
25 | COc1c(C(=O)O)cnn1-c1cccc(-c2cccc(C)c2OCc2ccc3c(c2C)CN(C2COC2)C3)n1 [Compound 257] | 14
26 | COc1c(C(=O)O)cnn1-c1cccc(-c2cccc(C)c2OCc2cc(C)c3c(c2)CN(C2COC2)C3)n1 [Compound 258] | 15
